Reference: patent US12503476B2, “Ring-fused 2-pyridone compounds, methods for preparation thereof and their use in the treatment and/or prevention of a disease involving gram-positive bacteria” (QURETECH BIO AB, priority 2020, dated 2025)
Converted amounts (≈) assume the structure as drawn. Like-named read-outs stand apart in the source and are kept apart here.

Columns and labels:
[1] = system: E. faecalis; assay: Minimum Inhibitory Concentration (MIC) assay, E. faecalis; assay type: cell-based, Enterococcus faecalis; conditions: for MIC: first figure of MIC/MBC, read-out: MIC for E. faecalis; for Growth inhibition of the pathogen of interest compared to the compound of Example 14 in WO 2018/229141: conclusion from Table 3 (E. faecalis and MRSA)
Experimental: (§1) The cultures (200 μl) were incubated at 37° C. for 24 h. […] The MIC was measured in micromolar concentration, i.e. μM. Objectively, this was determined by measuring the optical density (i.e. OD) of the test cultures at 600 nm using a spectrophotometer. As used herein, OD600 stands for optical density at a wavelength of 600 nm (i.e. 600 nanometers).

[2] = system: MRSA; assay: Minimum Inhibitory Concentration (MIC) assay, MRSA; assay type: cell-based, Methicillin-resistant Staphylococcus aureus; conditions: no antibiotic, 24 h, 37° C., n.d. = activity not observed at the concentrations tested, read-out: MIC for MRSA
Experimental: as §1

[3] = system: E. faecalis OG1RF; assay: Combined activity with gentamicin, vancomycin or ampicillin, E. faecalis OG1RF; assay type: cell-based, Enterococcus faecalis; conditions: gentamicin 16 μg/ml; for Synergistic effect when combined with gentamicin: 24 h; for E. faecalis activity, combination with gentamicin compared to gentamicin alone, compound alone and comparative example alone / E. faecalis activity, combination with gentamicin compared to the combination of the comparative example and gentamicin: subinhibitory compound 1-4 μM, OD600 24 h
Experimental: […]. The concentrations used in the experiments with E. faecalis OG1RF were 16 μg/ml gentamicin, 1 μg/ml vancomycin or 1 μg/ml ampicillin. In experiments where combinations were tested against MRSA 1369, 0.05 μg/ml gentamicin, 1 μg/ml vancomycin or 16 μg/ml ampicillin was used.
Bacterial cultures (190 μl) at a starting OD=0.001 at OD600 were incubated together with either subinhibitory concentrations of gentamicin/vancomycin/ampicillin or compound alone, or a combination of the two. The cultures (200 μl) were incubated at 37° C. for 24 h. A control sample without compound and gentamicin/vancomycin/ampicillin but containing compound vehicle (DMSO) and gentamicin/vancomycin/ampicillin vehicle (MQ water) was performed the same way. After 24 h, the effect on bacterial growth compared to untreated control samples was determined by measuring optical density at 600 nm with a spectrophotometer.
[…]. MIC/MBC values for the compounds administered alone are also shown for comparison. Unless otherwise stated, the compound was provided in a concentration of 1 μM.

[4] = system: MRSA; assay: Minimum Bactericidal Concentration (MBC) assay, MRSA; conditions: compound alone, no antibiotic, MIC cultures plated on BHI, second figure of MIC/MBC, n.d. = activity not observed at the concentrations tested; for MBC for MRSA: Table 3; for MBC: Staphylococcus aureus, MRSA, read-out: MBC for MRSA, Table 3
[5] = system: E. faecalis; assay: Minimum Bactericidal Concentration (MBC) assay, E. faecalis; conditions: for MBC for E. faecalis: second figure of MIC/MBC; for MBC: Enterococcus faecalis, read-out: MBC for E. faecalis
[6] = Enterococcus faecalis, Table 4, compound administered alone, n.d. = activity not observed
[7] = Table 3, compound alone, no antibiotic, 24 h, 37° C., OD600, n.d. = activity not observed at the concentrations tested
[8] = Table 3, compound alone, OD600, first figure of MIC/MBC
[9] = Table 3, compound alone, no antibiotic, MIC cultures plated on BHI, n.d. = activity not observed at the concentrations tested
[10] = Table 4, compound administered alone, n.d. = activity not observed
[11] = compound 1 μM, n.d. = activity not observed
[12] = Enterococcus faecalis, 24 h, Table 3, compound alone, no antibiotic, 24 h, 37° C., OD600, n.d. = activity not observed at the concentrations tested
[13] = Staphylococcus aureus, MRSA, Table 3, compound alone, OD600, first figure of MIC/MBC

| Compound | MIC [1, 6] [µM] | OD600 at 24 h when combined with gentamicin ([3]; compound 1 μM) | Synergistic effect when combined with gentamicin [3, 11] | MIC [1, 12] [µM] | MIC [2, 13] [µM] | MBC [4] [µM] | Growth inhibition of the pathogen of interest compared to the compound of Example 14 in WO 2018/229141 ([1]; compound alone) | other results |
| --- | --- | --- | --- | --- | --- | --- | --- | --- |
| O=C(O)C12C[C@@H](c3cccc(C(F)(F)F)c3)C1Sc1c(C3CC3)c(Cc3cccc4ccccc34)cc(=O)n12 (single isomer, unassigned) [Example 1] | 10 (≈ 5.48 µg/mL) | – | – | – | – | – | – | MIC [1, 7]: 10 µM (≈ 5.48 µg/mL); MIC [2, 8]: 5 µM (≈ 2.74 µg/mL); Synergistic effect when combined with gentamicin ([3]; compound 2 μM): Yes; MBC for MRSA [4]: 10 µM; MBC for E. faecalis [5, 9]: 25 µM |
| O=C(O)C12C[C@@H](c3cccc(C(F)(F)F)c3)C1Sc1c(C3CC3)c(Cc3cccc4ccccc34)cc(=O)n12 (single isomer, unassigned) [Example 2] | – | OD600 = 0.1 | Yes | – | – | – | – | MIC [1, 7]: 10 µM (≈ 5.48 µg/mL); MIC [1, 10]: 10 µM (≈ 5.48 µg/mL); MIC [2, 8]: 5 µM (≈ 2.74 µg/mL); MBC for MRSA [4]: 10 µM |
| O=C(O)C12C[C@@H](c3cccc(C(F)(F)F)c3)C1Sc1c(C3CC3)c(Cc3cccc4ccccc34)cc(=O)n12 (single isomer, unassigned) [Example 3] | – | OD600 = 0.35 at 24 h | Yes | 10 (≈ 5.48 µg/mL) | 5 (≈ 2.74 µg/mL) | 5 (≈ 2.74 µg/mL) | – | MIC [1, 10]: 10 µM (≈ 5.48 µg/mL); MBC [5]: 25 µM (≈ 13.7 µg/mL); MBC for E. faecalis [5, 10]: 25 µM |
| CN(C)c1c(Cc2cccc3ccccc23)c(C2CC2)c2n(c1=O)C1(C(=O)O)C[C@@H](c3cccc(C(F)(F)F)c3)C1S2 (stereo partly shown) [Example 5] | 5 (≈ 2.95 µg/mL) | OD600 = 0 | Yes | 5 (≈ 2.95 µg/mL) | 3 (≈ 1.77 µg/mL) | 4 (≈ 2.36 µg/mL) | substantially similar extent or to a higher extent | E. faecalis activity, combination with gentamicin compared to gentamicin alone, compound alone and comparative example alone [3]: much larger extent; E. faecalis activity, combination with gentamicin compared to the combination of the comparative example and gentamicin [3]: much larger extent; MBC [5]: 25 µM (≈ 14.8 µg/mL) |
| O=C(O)C12C[C@@H](c3ccc(C(F)(F)F)cc3)C1Sc1c(C3CC3)c(Cc3cccc4ccccc34)cc(=O)n12 (stereo partly shown) [Example 8] | – | – | – | 5 (≈ 2.74 µg/mL) | 5 (≈ 2.74 µg/mL) | 10 (≈ 5.48 µg/mL) | substantially similar extent or to a higher extent | – |
| O=C(O)C12C[C@@H](c3cccc(Cl)c3)C1Sc1c(C3CC3)c(Cc3cccc4ccccc34)cc(=O)n12 (stereo partly shown) [Example 9] | 5 (≈ 2.57 µg/mL) | OD600 = 0.1 | Yes | – | 5 (≈ 2.57 µg/mL) | – | substantially similar extent or to a higher extent | MIC [1, 7]: 5 µM (≈ 2.57 µg/mL); MBC for MRSA [4]: 1 µM; MBC [5]: 25 µM (≈ 12.9 µg/mL); MBC for E. faecalis [5, 10]: 25 µM |
| O=C(O)C12C[C@@H](c3cccc(Cl)c3)C1Sc1c(C3CC3)c(Cc3cccc4ccccc34)cc(=O)n12 (stereo partly shown) [Example 10] | – | – | – | – | – | – | – | MIC [1, 7]: 10 µM (≈ 5.14 µg/mL); MIC [2, 8]: 5 µM (≈ 2.57 µg/mL); MBC for MRSA [4]: 10 µM |
| O=C(O)C12C[C@@H](c3cccc(Cl)c3)C1Sc1c(C3CC3)c(Cc3cccc4ccccc34)cc(=O)n12 (stereo partly shown) [Example 11] | – | – | – | – | – | – | substantially similar extent or to a higher extent | MIC [1, 7]: 4 µM (≈ 2.06 µg/mL); MIC [2, 8]: 4 µM (≈ 2.06 µg/mL); E. faecalis activity, combination with gentamicin compared to gentamicin alone, compound alone and comparative example alone [3]: much larger extent; MBC for MRSA [4]: 10 µM; MBC for E. faecalis [5, 9]: 25 µM |
| CN(C)c1c(Cc2cccc3ccccc23)c(C2CC2)c2n(c1=O)C1(C(=O)O)C[C@@H](c3cccc(Cl)c3)C1S2 (stereo partly shown) [Example 13] | 3 (≈ 1.67 µg/mL) | OD600 = 0 | Yes | 3 (≈ 1.67 µg/mL) | 2 (≈ 1.11 µg/mL) | 4 (≈ 2.23 µg/mL) | substantially similar extent or to a higher extent | E. faecalis activity, combination with gentamicin compared to gentamicin alone, compound alone and comparative example alone [3]: much larger extent; E. faecalis activity, combination with gentamicin compared to the combination of the comparative example and gentamicin [3]: much larger extent; MBC [5]: 25 µM (≈ 13.9 µg/mL) |
| O=C(O)C12C[C@H](c3cc(Cl)cc(Cl)c3)C1Sc1c(C3CC3)c(Cc3cccc4ccccc34)cc(=O)n12 (stereo partly shown) [Example 16] | – | – | – | 10 (≈ 5.48 µg/mL) | 10 (≈ 5.48 µg/mL) | – | – | – |
| O=C(O)C12C[C@@H](c3cccc(Br)c3)C1Sc1c(C3CC3)c(Cc3cccc4ccccc34)cc(=O)n12 (stereo partly shown) [Example 17] | 4 (≈ 2.23 µg/mL) | OD 600 = 0 | Yes | 4 (≈ 2.23 µg/mL) | 3 (≈ 1.68 µg/mL) | 7.5 (≈ 4.19 µg/mL) | substantially similar extent or to a higher extent | E. faecalis activity, combination with gentamicin compared to gentamicin alone, compound alone and comparative example alone [3]: much larger extent; E. faecalis activity, combination with gentamicin compared to the combination of the comparative example and gentamicin [3]: much larger extent; MBC [5]: 25 µM (≈ 14 µg/mL) |
| CCCOc1ccc([C@@H]2CC3(C(=O)O)C2Sc2c(C4CC4)c(Cc4cccc5ccccc45)cc(=O)n23)cc1C (stereo partly shown) [Example 22] | – | – | – | 4 (≈ 2.21 µg/mL) | 4 (≈ 2.21 µg/mL) | 4 (≈ 2.21 µg/mL) | substantially similar extent or to a higher extent | E. faecalis activity, combination with gentamicin compared to gentamicin alone, compound alone and comparative example alone [3]: much larger extent; E. faecalis activity, combination with gentamicin compared to the combination of the comparative example and gentamicin [3]: much larger extent |
| CCCCOc1ccc([C@@H]2CC3(C(=O)O)C2Sc2c(C4CC4)c(Cc4cccc5ccccc45)cc(=O)n23)cc1C (stereo partly shown) [Example 23] | 3 (≈ 1.7 µg/mL) | OD600 = 0 | Yes | 3 (≈ 1.7 µg/mL) | 3 (≈ 1.7 µg/mL) | 5 (≈ 2.83 µg/mL) | substantially similar extent or to a higher extent | – |
| O=C(O)C12C[C@@H](Sc3ccccc3)C1Sc1c(C3CC3)c(Cc3cccc4ccccc34)cc(=O)n12 (stereo partly shown) [Example 27] | – | – | – | – | 10 (≈ 5.12 µg/mL) | – | – | – |
| O=C(O)C12C[C@H](Sc3ccccc3)C1Sc1c(C3CC3)c(Cc3cccc4ccccc34)cc(=O)n12 (stereo partly shown) [Example 28] | – | – | – | – | 25 (≈ 12.8 µg/mL) | – | – | – |
| COc1c(Cc2cccc3ccccc23)c(N(C)C)c(=O)n2c1SC1[C@H](c3cccc(C(F)(F)F)c3)CC12C(=O)O (stereo partly shown) [Example 29] | – | – | – | 25 (≈ 14.5 µg/mL) | 7.5 (≈ 4.35 µg/mL) | 7.5 (≈ 4.35 µg/mL) | – | – |
| Cc1cc(C)cc([C@@H]2CC3(C(=O)O)C2Sc2c(C4CC4)c(Cc4cccc(Cl)c4Cl)cc(=O)n23)c1 (stereo partly shown) [Example 31] | – | – | – | – | 5 (≈ 2.63 µg/mL) | – | – | – |
| O=C(O)C12C[C@@H](c3c(Cl)cccc3Cl)C1Sc1c(C3CC3)c(Cc3cc4ccccc4s3)cc(=O)n12 (stereo partly shown) [Example 34] | – | – | – | – | 5 (≈ 2.77 µg/mL) | – | – | – |
| O=c1cc(Cc2cccc3ccccc23)c(C2CC2)c2n1C(CCB(O)O)CS2 (stereo not shown) [Example 35] | – | – | – | – | 50 (≈ 20.3 µg/mL) | – | – | OD600 at 24 h when combined with gentamicin ([3]; compound 25 μM): OD600 = 0; Synergistic effect when combined with gentamicin ([3]; compound 25 μM): Yes |
| O=c1cc(Cc2cccc3ccccc23)c(-c2cccc(C(F)(F)F)c2)c2n1C(CCB(O)O)CS2 (stereo not shown) [Example 37] | – | – | – | – | 50 (≈ 25.5 µg/mL) | – | – | OD600 at 24 h when combined with gentamicin ([3]; compound 10 μM): OD600 = 0; Synergistic effect when combined with gentamicin ([3]; compound 10 μM): Yes |
